Like-named read-outs stand apart in the source and are kept apart here.
Key:
Assay type in all cases: in vivo, male rats of the Wister line
gastric mucous membrane [1] = test: 150 mM hydrochloric acid/60% ethanol-induced gastric mucous membrane damage in rats (Experimental Example 3); conditions: 150 mM HCl/60% ethanol; for Inhibition Ratio: vs control
Procedure: A suspension of a compound of formula I in a 0.5 % solution of CMC (carboxymethyl cellulose) was intraabdominally or orally administered in male rats of the Wister line (each group consisting of 10 rats) having a body weight of 180 to 200 g, which had been made to fast for 24 hours, and after 30 minutes, 1 ml of a liquid mixture of 150 mM hydrochloric acid and 60% ethanol was orally administered. After 1 hour from the administration of the liquid mixture of 150 mM hydrochloric acid and 60% ethanol, the abdominal operation was carried out, and the length of the damage on the gastric mucous membrane was measured as the mucous membrane damage coefficient and compared with the value obtained in the control group. Note, a 0.5% solution of CMC not containing a compound of formula I was intra-abdominally or orally administered in the control group. Data of the inhibition ratio calculated according to the following formula is shown in Tables 8 through 10: [formula] wherein A stands for the value obtained in the control group and B stands for the value obtained in the group in which the compound of formula I had been administered.

gastric mucous membrane [2] = test: 0.6N hydrochloric acid-induced gastric mucous membrane damage in rats (Experimental Example 2); conditions: for Inhibition Ratio: vs control
Procedure: A suspension of a compound of formula I in a […] of CMC (carboxymethyl cellulose) was intraabdominally administered in male rats of the Wister line (each group consisting of 10 rats) having a body weight of 180 to 200 g, which had been made to fast for 24 hours, and after 30 minutes, 1 ml of 0.6N hydrochloric acid was orally administered. After 1 hour from the administration of 0.6N hydrochloric acid, the abdominal operation was carried out, and the length of the damage on the gastric mucous membrane was measured as the mucous membrane damage coefficient and compared with the value obtained in the control group in the control group. Note, a 0.5% solution of CMC was intraabdominally administered. Data of the inhibition ratio calculated according to the following formula is shown in Tables 5 through 7: [formula] wherein A stands for the value obtained in the control group and B stands for the value obtained in the group in which the compound of formula I had been administered.

gastric mucous membrane [3] = test: 100% ethanol-induced gastric mucous membrane damage in rats (Experimental Example 1); conditions: for inhibition in vivo at 100 mg/kg: Rattus norvegicus, 1 h, vs control, read-out: Inhibition Ratio
Procedure: After 1 hour from the administration of 100% ethanol, the abdominal operation was carried out, and the length of the damaged region on the gastric mucous membrane was measured as the mucous membrane damage coefficient and compared with the value obtained in the control group. Note, a 0.5% solution of CMC not containing a compound of formula I was intraabdominally or orally administered in the control group.

[4] = Table 9, 30 mg/kg p.o., control 84.3
[5] = Table 6, 100 mg/kg i.p., control 106.3
[6] = Table 3, 100 mg/kg i.p., control 72.63
[7] = Table 8, 100 mg/kg p.o., control 119.0
[8] = Table 10, 30 mg/kg i.p., control 110.7
[9] = Table 4, 100 mg/kg i.p., control 72.3

Structure (SMILES): O=C(/C=C/c1ccc(O)c(O)c1)c1ccc(O)cc1O [Specific Example 19, 2',3,4,4'-tetrahydroxychalcone]
- Mucous Membrane Damage Coefficient (gastric mucous membrane [1]; [4]): 10.5 mm
- Inhibition Ratio (gastric mucous membrane [1]; Table 9, 30 mg/kg p.o.): 87.5%

Structure (SMILES): COc1ccc(CCC(=O)c2ccc(OC)c(CCC(C)C)c2OCC(=O)O)cc1 [Specific Example 3, 1-(carboxymethoxy-4-methoxy-3-isopentylphenyl)-3-(4-methoxyphenyl)-1-propanone]
- Mucous Membrane Damage Coefficient (gastric mucous membrane [2]; Table 5, 100 mg/kg i.p., control 65.8): 61.8 mm
- Inhibition Ratio (gastric mucous membrane [2]; Table 5, 100 mg/kg i.p.): 68.1%
- inhibition in vivo at 100 mg/kg (gastric mucous membrane [3]; ip, Table 1, 100 mg/kg i.p.): 63.4%
- inhibition in vivo at 100 mg/kg (gastric mucous membrane [3]; po, Table 2, 100 mg/kg p.o.): 93.2%
- Mucous Membrane Damage Coefficient (gastric mucous membrane [3]; Table 1, 100 mg/kg i.p., control 102.6): 37.6 mm
- Mucous Membrane Damage Coefficient (gastric mucous membrane [3]; Table 2, 100 mg/kg p.o., control 87.7): 6.0 mm

Structure (SMILES): COc1ccc(CCC(=O)c2c(OC)cc(OC)cc2OCC(=O)O)cc1 [Specific Example 11, 1-(2-carboxymethoxy-4,6-dimethoxyphenyl)-3-(4-methoxyphenyl)-1-propanone]
- Mucous Membrane Damage Coefficient (gastric mucous membrane [2]; [5]): 36.6 mm
- Inhibition Ratio (gastric mucous membrane [2]; Table 6, 100 mg/kg i.p.): 65.6%
- inhibition in vivo at 100 mg/kg (gastric mucous membrane [3]; ip, Table 3, 100 mg/kg i.p.): 92.8%
- Mucous Membrane Damage Coefficient (gastric mucous membrane [3]; [6]): 5.25 mm

Structure (SMILES): COc1ccc(/C=C/C(=O)c2ccc(OC)c(CC=C(C)C)c2OCC(=O)O)cc1 [Specific Example 8, 2'-carboxymethoxy-4,4'-dimethoxy-3'-(3-methyl-2-butenyl)chalcone]
- Mucous Membrane Damage Coefficient (gastric mucous membrane [2]; [5]): 62.4 mm
- Inhibition Ratio (gastric mucous membrane [2]; Table 6, 100 mg/kg i.p.): 41.3%
- inhibition in vivo at 100 mg/kg (gastric mucous membrane [3]; ip, Table 3, 100 mg/kg i.p.): 78.5%
- Mucous Membrane Damage Coefficient (gastric mucous membrane [3]; [6]): 15.63 mm

Structure (SMILES): COc1cc(CCC(=O)c2c(OC)cc(OC)c(CCC(C)C)c2OCC(=O)O)cc(OC)c1O [Specific Example 7, 1-(2-carboxymethoxy-4,6-dimethoxy-3-isopentylphenyl)-3-(4-hydroxy-3,5-dimethoxyphenyl)-1-propanone]
- inhibition in vivo at 100 mg/kg (gastric mucous membrane [3]; ip, Table 3, 100 mg/kg i.p.): 32.5%
- Mucous Membrane Damage Coefficient (gastric mucous membrane [3]; [6]): 49.00 mm

Structure (SMILES): O=C(CCc1ccc(O)cc1)c1ccc(O)cc1O [Specific Example 22, 1-(2,4-dihydroxyphenyl)-3-(4-hydroxyphenyl)-1-propanone]
- Mucous Membrane Damage Coefficient (gastric mucous membrane [1]; [7]): 1.4 mm
- Inhibition Ratio (gastric mucous membrane [1]; Table 8, 100 mg/kg p.o.): 98.8%
- Mucous Membrane Damage Coefficient (gastric mucous membrane [1]; [4]): 57.2 mm
- Inhibition Ratio (gastric mucous membrane [1]; Table 9, 30 mg/kg p.o.): 32.1%
- Mucous Membrane Damage Coefficient (gastric mucous membrane [1]; [8]): 54.2 mm
- Inhibition Ratio (gastric mucous membrane [1]; Table 10, 30 mg/kg i.p.): 51.0%

Structure (SMILES): CC(C)CCc1c(O)cc(O)c(C(=O)CCc2ccc(O)cc2)c1OCC(=O)O [Specific Example 32, 1-(2-carboxymethoxy-4,6-dihydroxy-3-isopentylphenyl)-3-(4-hydroxyphenyl)-1-propanone]
- inhibition in vivo at 100 mg/kg (gastric mucous membrane [3]; ip, Table 4, 100 mg/kg i.p.): 61.3%
- Mucous Membrane Damage Coefficient (gastric mucous membrane [3]; [9]): 28.0 mm

Structure (SMILES): O=C(CCc1ccc(O)c(O)c1)c1ccc(O)cc1O [Specific Example 27, 1-(2,4-dihydroxyphenyl)-3-(3,4-dihydroxyphenyl)-1-propanone]
- Mucous Membrane Damage Coefficient (gastric mucous membrane [1]; [4]): 1.5 mm
- Inhibition Ratio (gastric mucous membrane [1]; Table 9, 30 mg/kg p.o.): 98.2%
- Mucous Membrane Damage Coefficient (gastric mucous membrane [1]; [8]): 60.0 mm
- Inhibition Ratio (gastric mucous membrane [1]; Table 10, 30 mg/kg i.p.): 45.8%

Structure (SMILES): COc1ccc(/C=C/C(=O)c2c(OC)cc(OC)c(CCC(C)C)c2OCC(=O)O)cc1 [Specific Example 9, 2'-carboxymethoxy-4,4',6'-trimethoxy-3'-isopentylchalcone]
- Mucous Membrane Damage Coefficient (gastric mucous membrane [2]; [5]): 39.6 mm
- Inhibition Ratio (gastric mucous membrane [2]; Table 6, 100 mg/kg i.p.): 62.3%
- inhibition in vivo at 100 mg/kg (gastric mucous membrane [3]; ip, Table 3, 100 mg/kg i.p.): 93.1%
- Mucous Membrane Damage Coefficient (gastric mucous membrane [3]; [6]): 5.00 mm

Structure (SMILES): O=C(CCc1ccc(O)c(O)c1)c1c(O)cc(O)cc1O [Specific Example 28, 1-(2,4,6-trihydroxyphenyl)-3-(3,4-dihydroxyphenyl)-1-propanone]
- Mucous Membrane Damage Coefficient (gastric mucous membrane [1]; [7]): 15.7 mm
- Inhibition Ratio (gastric mucous membrane [1]; Table 8, 100 mg/kg p.o.): 86.8%
- inhibition in vivo at 100 mg/kg (gastric mucous membrane [3]; ip, Table 4, 100 mg/kg i.p.): 90%
- Mucous Membrane Damage Coefficient (gastric mucous membrane [3]; [9]): 7.2 mm

Structure (SMILES): CC(C)CCc1cc(CCC(=O)c2c(O)cc(O)c(CCC(C)C)c2O)ccc1O [Specific Example 37, 1-(2,4,6-trihydroxy-3-isopentylphenyl)-3-(4-hydroxy-3-isopentylphenyl)-1-propanone]
- inhibition in vivo at 100 mg/kg (gastric mucous membrane [3]; ip, Table 4, 100 mg/kg i.p.): 31.1%
- Mucous Membrane Damage Coefficient (gastric mucous membrane [3]; [9]): 49.8 mm

Structure (SMILES): COc1ccc(CCC(=O)c2ccc(OC)c(CCC(C)C)c2O)cc1 [Specific Example 33, 1-(2-hydroxy-4-methoxy-3-isopentylphenyl)-3-(4-methoxyphenyl)-1-propanone]
- inhibition in vivo at 100 mg/kg (gastric mucous membrane [3]; ip, Table 4, 100 mg/kg i.p.): 40.1%
- Mucous Membrane Damage Coefficient (gastric mucous membrane [3]; [9]): 3.3 mm

Structure (SMILES): O=C(/C=C/c1ccc(O)cc1)c1ccc(O)cc1O [Specific Example 15, 2',4,4'-trihydroxychalcone]
- Mucous Membrane Damage Coefficient (gastric mucous membrane [1]; [4]): 30.0 mm
- Inhibition Ratio (gastric mucous membrane [1]; Table 9, 30 mg/kg p.o.): 64.4%
- Mucous Membrane Damage Coefficient (gastric mucous membrane [1]; [8]): 49.5 mm
- Inhibition Ratio (gastric mucous membrane [1]; Table 10, 30 mg/kg i.p.): 55.3%

Structure (SMILES): O=C(CCc1ccc(O)cc1)c1c(O)cc(O)cc1O [Specific Example 23, 1-(2,4,6-trihydroxyphenyl)-3-(4-hydroxyphenyl)-1-propanone]
- Mucous Membrane Damage Coefficient (gastric mucous membrane [1]; [7]): 67.9 mm
- Inhibition Ratio (gastric mucous membrane [1]; Table 8, 100 mg/kg p.o.): 43.0%
- inhibition in vivo at 100 mg/kg (gastric mucous membrane [3]; ip, Table 4, 100 mg/kg i.p.): 36.7%
- Mucous Membrane Damage Coefficient (gastric mucous membrane [3]; [9]): 45.8 mm

Structure (SMILES): COc1ccc(CCC(=O)c2c(OC)cc(OC)c(CC=C(C)C)c2OCC(=O)O)cc1 [Specific Example 12, 1-[2-carboxymethoxy-4,6-dimethoxy-3-(3-methyl-2-butenyl)phenyl]-3-(4-methoxyphenyl) -propanone]
- Mucous Membrane Damage Coefficient (gastric mucous membrane [2]; [5]): 76.6 mm
- Inhibition Ratio (gastric mucous membrane [2]; Table 6, 100 mg/kg i.p.): 27.8%
- inhibition in vivo at 100 mg/kg (gastric mucous membrane [3]; ip, Table 3, 100 mg/kg i.p.): 43.2%
- Mucous Membrane Damage Coefficient (gastric mucous membrane [3]; [6]): 41.25 mm

Structure (SMILES): CC(=O)Oc1c(CC=C(C)C)c(O)cc(O)c1C(=O)CCc1ccc(O)cc1 [Specific Example 24, 1-[2-acetoxy-4,6-hydroxy-3-(3-methyl-2-butenyl)phenyl]-3-(4-hydroxyphenyl)-1-propanone]
- inhibition in vivo at 100 mg/kg (gastric mucous membrane [3]; ip, Table 4, 100 mg/kg i.p.): 23%
- Mucous Membrane Damage Coefficient (gastric mucous membrane [3]; [9]): 55.7 mm

Structure (SMILES): COc1ccc(CCC(=O)c2c(OC)cc(OC)c(CCC(C)C)c2OCC(=O)O)cc1O [Specific Example 6, 1-(2-carboxymethoxy-4,6-dimethoxy-3-isopentylphenyl)-3-(3-hydroxy-4-methoxyphenyl)-1-propanone]
- inhibition in vivo at 100 mg/kg (gastric mucous membrane [3]; ip, Table 3, 100 mg/kg i.p.): 32.4%
- Mucous Membrane Damage Coefficient (gastric mucous membrane [3]; [6]): 49.13 mm

Structure (SMILES): COc1cc(CCC(=O)c2c(OC)cc(OC)c(CCC(C)C)c2OCC(=O)O)ccc1O [Specific Example 5, 1-(2-carboxymethoxy-4,6-dimethoxy-3-isopentylphenyl)-3-(4-hydroxy-3-methoxyphenyl)-1-propanone]
- inhibition in vivo at 100 mg/kg (gastric mucous membrane [3]; ip, Table 3, 100 mg/kg i.p.): 27.9%
- Mucous Membrane Damage Coefficient (gastric mucous membrane [3]; [6]): 52.38 mm

Structure (SMILES): COc1ccc(/C=C/C(=O)c2ccc(OC)c(CC=C(C)C)c2O)cc1 [Specific Example 16, 2'-hydroxy-4,4'-dimethoxy-3'-(3-methyl-2-butenyl)chalcone]
- inhibition in vivo at 100 mg/kg (gastric mucous membrane [3]; ip, Table 4, 100 mg/kg i.p.): 36.4%
- Mucous Membrane Damage Coefficient (gastric mucous membrane [3]; [9]): 46.0 mm

— patent publication US5106871A, “Anti-ulcer agent comprising chalcone derivative as effective ingredient and novel chalcone derivative” (Tsumura & Co., priority 1986, dated 1992)
